Patent publication US20040014140A1, “Methods for identifying allosteric sites” (priority 2002, published 2004)

Experiments:
[1] = tested on: mutant PTP-1B where Asn-193 is mutated to alanine, Phe-196 is mutated to arginine, and Phe-280 is mutated to cysteine; experiment: Inhibition of allosterically disabled mutant PTP-1B; format: biochemical, human; settings: N193A, F196R, F280C mutant; allosteric mechanism disabled
Excerpt: The importance of allosteric forming residues, Asn-193, Phe-196, and Phe-280 has been confirmed in part using mutagenesis experiments.
PTP-1B[321; N193A; F196R; F280C] was generated by joining an NdeI-PstI fragment from PTP-IB[321; N193A; F196R], corresponding to residues 1-215, with a PstI-EcoRI fragment from PTP-1B[321; F280C], corresponding to residues 216-321.
PTP-1B[298; N193A; F196R; F280C] was generated by PCR using PTP-1B[321; N193A; F196R; F280C] as a template. T7 vector primer was used as forward primer and truncation at residue 298 was generated using the primer 5′-[…] (SEQ ID. NO. 22).

caspase-9 = experiment: Tethering experiments with caspase-9; parameters: species or system human; settings: binding to the small subunit, cysteine corresponding to Ile-265 in caspase-3
Protocol: This example describes one embodiment of a tethering experiment using caspase-3 or cysteine mutants thereof. […] Reactions were allowed to proceed to equilibrium (≧1 hour) before being analyzed by mass spectrometry. The reaction mixture was loaded onto a Finnegan LCQ2 or LCQ3 LCMS, with each run taking 2-5 minutes, depending upon the separation procedure. After deconvolution, the large and/or small subunits were identified based upon their known molecular weight.

Row | Compound | inhibition of mutant PTP-1B [1] | selection in tethering experiments (caspase-9)
1 | CCc1oc2cc(S(=O)(=O)Nc3ccc(S(N)(=O)=O)cc3)ccc2c1C(=O)c1cc(Br)c(O)c(Br)c1 [compound 15] | no longer capable of inhibiting the enzyme | –
2 | O=C(O)c1ccc(Oc2ccccc2)cc1 [compound 8] | – | selected
